Test results taken from US8546376B2, “Pharmaceutical compounds” (Almac Discovery Limited, priority 2009, dated 2013).
Structures can show the parent of a compound that is named as a salt.

Experiments:
Type in all cases: biochemical
AKT1 = biological target: T1, AKT1 (Homo sapiens, UniProt P31749); test: AKT Kinase Assay (IMAP fluorescent polarisation) vs AKT1; conditions: activated AKT1, FAM Crosstide substrate
T1 construct: purchased SignalChem
Experimental: (§1) Testing of the compounds was performed using an AKT Kinase Assay:
(§2) Activated AKT isoforms 1, 2 and 3 were assayed utilising a 5′ FAM Crosstide (Seq. GRPRTSSFAEG-OH). The extent of kinase phosphorylation was determined by fluorescent polarisation using IMAP progressive binding reagent, which introduces binding beads which allow the reagent to specifically bind to phosphate residues via covalent co-ordination complex bonds.
(§3) iMAP binding solution stops Crosstide/kinase interaction and specifically binds phosphorylated substrates. The degree of phosphorylation is determined by fluorescent polarisation (excitation 485 nm; emission 528 nm) or the reduction in speed of rotation of the excited substrate.
(§4) The following materials were used in the assay: • a) Activated AKT isoforms (SignalChem.) dissolved in Complete Reaction buffer at a pre-determined concentration selected so that the assay was carried out in the linear range. • b) AKT substrate peptide: FAM Crosstide (R7110) Molecular Devices, diluted in complete reaction buffer. • c) iMAP Progressive Screening Express Kit (R8127) Molecular Devices • d) Complete Reaction Buffer containing 0.1% BSA, 10 mM Tris-HCl, 10 mM MgCl2, 0.05% NaN3 and 0.01% phosphate free BSA, 1 mM DTT • e) Progressive Binding Solution containing 75% Buffer A, 25% Buffer B and low volume Binding Reagent which contains the binding entity for the assay • f) ATP diluted in complete reaction buffer • g) Black polystyrene 384 well assay plates (Nunc). • h) Biotek Synergy 4 Hybrid Plate reader.
(§5) 5 μl of test compound was dissolved in DMSO (Sigma Aldrich) and serially diluted in complete reaction buffer to give a fourteen point half log dose response and plated into 384 well black plates. The compound was incubated at room temperature with activated AKT isoform (5 μl) at the pre-determined concentration, for 45 minutes.
(§6) 2.5 μl of ATP solution mixed with 2.5 μl of AKT substrate peptide (FAM Crosstide (R7110) Molecular Devices) were dispensed into each well and the plate centrifuged at 1000 rpm for 20 seconds to ensure homogenous mixing of reagents. The reaction mix was incubated in the dark for one hour at room temperature.
(§7) The kinase reaction was stopped by the addition of Progressive Binding Solution and the mixture allowed to equilibrate for one hour in the dark, at room temperature.
(§8) The fluorescent polarisation generated in each well was determined using a […] Synergy 4 Hybrid plate reader. In brief, each reaction solution was excited at 485 nm with the emission measured at 528 nm in both the parallel and perpendicular pathway.
(§9) The polarisation value generated in each well was calculated by Gen5 software (Biotek) and the % inhibition of kinase activity compared to vehicle control was calculated via GraphPad Prism. IC50 values for each compound were calculated by non-linear regression analysis using Prism software.
(§10) All plates were internally controlled by two methods. Firstly, by calculating the signal:noise ratio; based on kinase polarisation without inhibitor and polarisation generated by complete reaction buffer in the absence of activated kinase. Secondly by determining IC50 values generated by known inhibitors of the AKT isoforms.

AKT2 = biological target: T2, AKT2 (Homo sapiens, UniProt P31751); test: AKT Kinase Assay (IMAP fluorescent polarisation) vs AKT2; conditions: activated AKT2, FAM Crosstide substrate
T2 construct: purchased SignalChem
T2 sequence (P31751 whole entry): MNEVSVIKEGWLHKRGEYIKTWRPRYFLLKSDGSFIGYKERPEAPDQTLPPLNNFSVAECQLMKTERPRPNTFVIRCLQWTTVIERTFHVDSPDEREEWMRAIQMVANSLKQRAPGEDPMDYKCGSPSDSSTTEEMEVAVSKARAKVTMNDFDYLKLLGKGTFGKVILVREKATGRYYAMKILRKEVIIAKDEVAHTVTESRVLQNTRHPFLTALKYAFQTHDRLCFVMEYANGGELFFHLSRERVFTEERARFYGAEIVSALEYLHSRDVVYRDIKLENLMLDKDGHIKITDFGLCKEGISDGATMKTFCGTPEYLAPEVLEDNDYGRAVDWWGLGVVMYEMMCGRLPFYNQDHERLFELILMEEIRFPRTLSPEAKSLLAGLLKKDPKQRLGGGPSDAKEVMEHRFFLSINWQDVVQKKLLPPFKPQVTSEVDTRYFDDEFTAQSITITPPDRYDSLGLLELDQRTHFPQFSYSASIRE
Experimental: as §1, §2, §3, §4, §5, §6, §7, §8, §9, §10

AKT3 = biological target: T3, AKT3 (Homo sapiens, UniProt Q9Y243); test: AKT Kinase Assay (IMAP fluorescent polarisation) vs AKT3; conditions: activated AKT3, FAM Crosstide substrate
T3 construct: purchased SignalChem
T3 sequence (Q9Y243 whole entry): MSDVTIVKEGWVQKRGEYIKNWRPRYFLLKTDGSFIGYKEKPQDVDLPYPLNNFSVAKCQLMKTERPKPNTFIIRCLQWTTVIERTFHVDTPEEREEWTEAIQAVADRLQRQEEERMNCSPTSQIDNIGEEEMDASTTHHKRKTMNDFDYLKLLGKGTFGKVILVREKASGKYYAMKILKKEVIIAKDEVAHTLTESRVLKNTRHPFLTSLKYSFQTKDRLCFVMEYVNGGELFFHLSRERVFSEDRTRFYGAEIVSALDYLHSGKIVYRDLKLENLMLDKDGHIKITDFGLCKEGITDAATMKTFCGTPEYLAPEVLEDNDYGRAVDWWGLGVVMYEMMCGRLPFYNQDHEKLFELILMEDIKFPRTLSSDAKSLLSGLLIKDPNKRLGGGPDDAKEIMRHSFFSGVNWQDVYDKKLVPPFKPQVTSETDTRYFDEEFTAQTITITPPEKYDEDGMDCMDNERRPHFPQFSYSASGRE
Experimental: as §1, §2, §3, §4, §5, §6, §7, §8, §9, §10

T1 sequence (P31749 whole entry): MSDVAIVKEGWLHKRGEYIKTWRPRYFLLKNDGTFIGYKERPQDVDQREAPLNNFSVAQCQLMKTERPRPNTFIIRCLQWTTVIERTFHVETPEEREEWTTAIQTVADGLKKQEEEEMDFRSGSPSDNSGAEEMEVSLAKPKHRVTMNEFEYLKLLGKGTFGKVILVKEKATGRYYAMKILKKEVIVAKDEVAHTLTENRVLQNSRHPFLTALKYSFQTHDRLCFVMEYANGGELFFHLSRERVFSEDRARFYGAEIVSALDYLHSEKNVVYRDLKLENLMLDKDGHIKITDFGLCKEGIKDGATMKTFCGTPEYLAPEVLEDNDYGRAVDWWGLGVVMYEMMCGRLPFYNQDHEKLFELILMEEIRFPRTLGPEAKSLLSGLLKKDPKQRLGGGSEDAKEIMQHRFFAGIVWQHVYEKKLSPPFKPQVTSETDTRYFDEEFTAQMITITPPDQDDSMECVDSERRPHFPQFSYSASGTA

Row | Structure (SMILES) | IC50 (AKT1) | IC50 (AKT2) | IC50 (AKT3)
1 | COCCn1ccc2c(=O)c(-c3ccc(C4(N)CCC4)cc3)c(-c3ccccc3)oc2c1=O [Example 31, 3-[4-(1-Amino-cyclobutyl)-phenyl]-7-(2-methoxy-ethyl)-2-phenyl-7H-pyrano[2,3-c]pyridine-4,8-dione] | > 10000 nM | 1000 to 10000 nM | 1000 to 10000 nM
2 | NC1(c2ccc(-c3c(-c4ccccc4)oc4c(OC(F)F)nccc4c3=O)cc2)CCC1 [Example 32, 3-[4-(1-Amino-cyclobutyl)-phenyl]-8-difluoromethoxy-2-phenyl-pyrano[2,3-c]pyridin-4-one] | 1000 to 10000 nM | ≤ 1000 nM | 1000 to 10000 nM
3 | NC1(c2ccc(-c3c(-c4ccccc4)oc4c(ccc5[nH]ncc54)c3=O)cc2)CCC1 [Example 33, 3-[4-(1-Amino-cyclobutyl)-phenyl]-2-phenyl-7H-pyrano[2,3-c]indazol-4-one] | ≤ 1000 nM | ≤ 1000 nM | ≤ 1000 nM
4 | NC1(c2ccc(-c3c(-c4ccccc4)oc4ncccc4c3=O)cc2)CCC1 [Example 34, 3-[4-(1-Amino-cyclobutyl)-phenyl]-2-phenyl-pyrano[2,3-b]pyridin-4-one] | 1000 to 10000 nM | 1000 to 10000 nM | > 10000 nM
5 | COc1ccc2c(=O)c(-c3ccc(C4(N)CCC4)cc3)c(-c3ccccc3)oc2n1 [Example 35, 3-[4-(1-Amino-cyclobutyl)-phenyl]-7-methoxy-2-phenyl-pyrano[2,3-b]pyridin-4-one hydrochloride] | 1000 to 10000 nM | 1000 to 10000 nM | 1000 to 10000 nM
6 | NC1(c2ccc(-c3c(-c4ccccc4)oc4[nH]c(=O)ccc4c3=O)cc2)CCC1 [Example 36, 3-[4-(1-Amino-cyclobutyl)-phenyl]-2-phenyl-8H-pyrano[2,3-b]pyridine-4,7-dione hydrochloride] | 1000 to 10000 nM | 1000 to 10000 nM | > 10000 nM
7 | NC1(c2ccc(-c3c(-c4ccccc4)oc4cc(F)ccc4c3=O)cc2)CCC1 [Example 37, 3-[4-(1-Amino-cyclobutyl)-phenyl]-7-fluoro-2-phenyl-chromen-4-one hydrochloride] | ≤ 1000 nM | 1000 to 10000 nM | 1000 to 10000 nM
8 | NC1(c2ccc(-c3c(-c4ccccc4)oc4nc(Cl)ccc4c3=O)cc2)CCC1 [Example 38, 3-[4-(1-Amino-cyclobutyl)-phenyl]-7-chloro-2-phenyl-pyrano[2,3-b]pyridin-4] | 1000 to 10000 nM | 1000 to 10000 nM | > 10000 nM
9 | COc1nccc2c(=O)c(-c3ccc(C4(N)CCC4)cc3)c(-c3ccccc3)oc12 [Example 39, 3-[4-(1-Amino-cyclobutyl)-phenyl]-8-methoxy-2-phenyl-pyrano[2,3-c]pyridin-4-one hydrochloride] | ≤ 1000 nM | ≤ 1000 nM | 1000 to 10000 nM
10 | Cn1ccc2c(=O)c(-c3ccc(C4(N)CCC4)cc3)c(-c3ccccc3)oc2c1=O [Example 41, 3-[4-(1-Amino-cyclobutyl)-phenyl]-7-methyl-2-phenyl-7H-pyrano[2,3-c]pyridine-4,8-dione hydrochloride] | > 10000 nM | 1000 to 10000 nM | > 10000 nM
11 | NC1(c2ccc(-c3c(-c4ccccc4)oc4c(Cl)nccc4c3=O)cc2)CCC1 [Example 42, 3-[4-(1-Amino-cyclobutyl)-phenyl]-8-chloro-2-phenyl-pyrano[2,3-c]pyridin-4-one hydrochloride] | ≤ 1000 nM | ≤ 1000 nM | 1000 to 10000 nM
12 | NC1(c2ccc(-c3c(-c4ccccc4)oc4c(=O)n(CCO)ccc4c3=O)cc2)CCC1 [Example 43, 3-[4-(1-Amino-cyclobutyl)-phenyl]-7-(2-hydroxy-ethyl)-2-phenyl-7H-pyrano[2,3-c]pyridine-4,8-dione hydrochloride] | > 10000 nM | > 10000 nM | > 10000 nM
13 | NC1(c2ccc(-c3c(-c4ccccc4)oc4c(ccc5nc[nH]c54)c3=O)cc2)CCC1 [Example 45, 7-[4-(1-Amino-cyclobutyl)-phenyl]-8-phenyl-1H-chromeno[7,8-d]imidazol-6-one.TFA] | 1000 to 10000 nM | ≤ 1000 nM | 1000 to 10000 nM
14 | Nc1ccc2c(=O)c(-c3ccc(C4(N)CCC4)cc3)c(-c3ccccc3)oc2c1 [Example 47, 7-Amino-3-[4-(1-amino-cyclobutyl)-phenyl]-2-phenyl-1-benzopyran-4-one.TFA] | 1000 to 10000 nM | 1000 to 10000 nM | > 10000 nM
15 | NC1(c2ccc(C3=C(c4ccccc4)c4ccccc4C3=O)cc2)CCC1 [Example 48, 2-(4-(1-aminocyclobutyl)phenyl)-3-phenyl-1H-inden-1-one hydrochloride] | 1000 to 10000 nM | 1000 to 10000 nM | 1000 to 10000 nM
16 | Nc1cc2oc(-c3ccccc3)c(-c3ccc(C4(N)CCC4)cc3)c(=O)c2cc1Br [Example 49, 7-Amino-3-[4-(1-amino-cyclobutyl)-phenyl]-6-bromo-2-phenyl-chromen-4-one. TFA] | ≤ 1000 nM | > 10000 nM | > 10000 nM
17 | COc1ccc2c(=O)c(-c3ccc(C4(N)CCC4)cc3)c(-c3ccccc3)oc2c1C(N)=O [Example 50, 3-[4-(1-Amino-cyclobutyl)-phenyl]-7-methoxy-4-oxo-2-phenyl-4H-chromene-8-carboxylic acid amide hydrochloride] | ≤ 1000 nM | 1000 to 10000 nM | 1000 to 10000 nM
18 | NC1(c2ccc(-c3c(-c4ccccc4)oc4c(Br)cccc4c3=O)cc2)CCC1 [Example 51, 3-[4-(1-Amino-cyclobutyl)-phenyl]-8-bromo-2-phenyl-chromen-4-one] | ≤ 1000 nM | ≤ 1000 nM | ≤ 1000 nM
19 | NC1(c2ccc(-c3c(-c4ccccc4)oc4c(-c5cn[nH]c5)cccc4c3=O)cc2)CCC1 [Example 52, 3-[4-(1-Amino-cyclobutyl)-phenyl]-2-phenyl-8-(1H-pyrazol-4-yl)-chromen-4-one hydrochloride] | ≤ 1000 nM | ≤ 1000 nM | ≤ 1000 nM
20 | NC1(c2ccc(-c3c(-c4ccccc4)oc4c(-c5cc[nH]n5)cccc4c3=O)cc2)CCC1 [Example 53, 3-[4-(1-Amino-cyclobutyl)-phenyl]-2-phenyl-8-(1H-pyrazol-3-14)-chromen-4-one hydrochloride] | ≤ 1000 nM | ≤ 1000 nM | 1000 to 10000 nM
21 | NC1(c2ccc(-c3c(-c4ccccc4)oc4c(C5CC5)cccc4c3=O)cc2)CCC1 [Example 54, 3-[4-(1-Amino-cyclobutyl)-phenyl]-8-cyclopropyl-2-phenyl-chromen-4-one hydrochloride] | ≤ 1000 nM | ≤ 1000 nM | 1000 to 10000 nM
22 | Cn1cc(-c2cccc3c(=O)c(-c4ccc(C5(N)CCC5)cc4)c(-c4ccccc4)oc23)cn1 [Example 55, 3-[4-(1-Amino-cyclobutyl)-phenyl]-8-(1-methyl-1H-pyrazol-4-yl)-2-phenyl-chromen-4-one hydrochloride] | ≤ 1000 nM | ≤ 1000 nM | 1000 to 10000 nM
23 | NC1(c2ccc(-c3c(-c4ccccc4)oc4c(-c5cccnc5)cccc4c3=O)cc2)CCC1 [Example 56, 3-[4-(1-Amino-cyclobutyl)-phenyl]-2-phenyl-8-pyridin-3-yl-chromen-4-one] | ≤ 1000 nM | ≤ 1000 nM | 1000 to 10000 nM
24 | NC1(c2ccc(-c3c(-c4ccccc4)oc4c(ccc5cn[nH]c54)c3=O)cc2)CCC1 [Example 57, 7-[4-(1-Amino-cyclobutyl)-phenyl]-8-phenyl-1H-9-oxa-1,2-diaza-cyclopenta[a]naphthalen-6-one] | ≤ 1000 nM | ≤ 1000 nM | 1000 to 10000 nM
25 | Cn1ncc2ccc3c(=O)c(-c4ccc(C5(N)CCC5)cc4)c(-c4ccccc4)oc3c21 [Example 58, 7-[4-(1-Amino-cyclobutyl)-phenyl]-1-methyl-8-phenyl-1H-9-oxa-1,2-diaza-cyclopenta[a]naphthalen-6-one] | ≤ 1000 nM | ≤ 1000 nM | 1000 to 10000 nM
26 | Cn1cc2ccc3c(=O)c(-c4ccc(C5(N)CCC5)cc4)c(-c4ccccc4)oc3c2n1 [Example 59, 7-[4-(1-Amino-cyclobutyl)-phenyl]-2-methyl-8-phenyl-2H-9-oxa-1,2-diaza-cyclopenta[a]naphthalen-6-one] | ≤ 1000 nM | ≤ 1000 nM | 1000 to 10000 nM
